As a reminder, the IC50 is the concentration that inhibits the measured activity by half.

Some results are limits rather than exact numbers.

The source of these data is ChEMBL document CHEMBL4476876, “Compounds for the modulation of myc activity” (2018).

For one assay, the system named is NCI-H2171. In words: Antiproliferative activity against human NCI-H2171 cells after 72 hrs by ATPlite assay. The assay is classed as functional, cell-based. As to conditions: NCI-H2171, 72 h. On the technique in general: ATP-based viability assays read luminescence as a measure of living cells.
The target in assay [1] is Myc proto-oncogene protein (Homo sapiens, UniProt P01106). In words: Inhibition of human c-Myc assessed as reduction in c-Myc/Max/Ebox DNA complex formation using pre-formed complex of c-Myc and biotinylated DNA containing single Ebox-sequence followed by compound addition and further addition of his6-tagged c-Max and incubated for 2 hrs by AlphaScreen assay. Background: Alpha assays give light when donor and acceptor beads are brought close together.
Myc proto-oncogene protein, sequence (P01106 whole entry): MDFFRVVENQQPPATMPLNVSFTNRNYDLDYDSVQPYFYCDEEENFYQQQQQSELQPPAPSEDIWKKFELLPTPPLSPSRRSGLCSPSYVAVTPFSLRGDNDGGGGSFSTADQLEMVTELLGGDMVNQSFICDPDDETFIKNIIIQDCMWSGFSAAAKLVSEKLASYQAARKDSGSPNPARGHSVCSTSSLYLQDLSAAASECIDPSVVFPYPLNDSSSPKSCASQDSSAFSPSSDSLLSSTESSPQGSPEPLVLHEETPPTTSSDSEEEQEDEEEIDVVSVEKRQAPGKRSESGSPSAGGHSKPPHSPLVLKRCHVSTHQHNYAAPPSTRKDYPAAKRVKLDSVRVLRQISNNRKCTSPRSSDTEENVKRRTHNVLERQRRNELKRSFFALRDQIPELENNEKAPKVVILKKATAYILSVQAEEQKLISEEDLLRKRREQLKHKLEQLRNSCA

For the compound `CCN1[C@H](C)Cc2c(sc(NC(C)=O)c2-c2nc3c(C(F)F)nccc3s2)[C@H]1C`, the 50% inhibitory concentration (IC50) with NCI-H2171 was less than 500 nM.
In the assay on NCI-H2171, `CC[C@H](C)NCCC(=O)Nc1sc2c(c1-c1nc3cnccc3s1)CN[C@H](C)C2` returned a concentration for half-maximal inhibition (IC50) of less than 500 nM.
In the assay on NCI-H2171, `CC[C@H](C)NCCC(=O)Nc1sc2c(c1-c1nc3cnccc3s1)C[C@H](C)NC2` returned an IC50 of less than 500 nM.
On to `O=C(CC[N+]12CCN(CC1)CC2)Nc1sc2c(c1-c1nc3cnccc3s1)CCNC2`, for which the concentration for half-maximal inhibition (IC50) in assay [1] was less than 500 nM.
